Test results: US20220289765A1, “CRYSTAL OF CARCINOGENIC FUSED KINASE INHIBITOR AND APPLICATIONS THEREOF” (Simcere Pharmaceutical Co., Ltd., priority 2019, published 2022)

What was measured:
ALK = target: T1, ALK (Homo sapiens, UniProt Q9UM73); assay: Kinase inhibitory activity (33P-ATP filtration-binding, Reaction Biology Corp.); type: biochemical; conditions: read-out: Half Inhibitory Concentrations of Kinases IC50, ALK
T1 construct: purchased Reaction Biology Corp
Procedure: The inhibitory activity tests of compounds against kinases such as TrkA, TrkC, ALK, Ros1 were completed in Reaction Biology Corp. Certain concentrations of substrate, cofactors, kinases and test compounds (10 doses, 3-fold serial dilutions, 2% DMSO final concentration) were sequentially added to the reaction buffer (20 mM Hepes (pH 7.5), 10 mM MgCl2, 1 mM EGTA, 0.02% Brij35, 0.02 mg/mL BSA, 0.1 mM Na3VO4, 2 mM DTT, 1% DMSO), and mixed well. The resulting mixture was incubated at room temperature for 20 minutes, and a certain concentration of 33P-ATP was added to the reaction mixture to initiate the reaction, followed by incubation at room temperature for 120 minutes. Finally, the radioactivity of the reactants was detected by a filtration-binding method. The final kinase activity was expressed by the ratio of the remaining kinase activity in the test sample to the kinase activity of the DMSO control group. The dose-effect curve was fitted by GraphPad software and the IC50 values were calculated.

Ros-G2032R = target: T2, Ros-G2032R (Homo sapiens, UniProt P08922, G2032R); assay: as above; type: biochemical; conditions: read-out: Half Inhibitory Concentrations of Kinases IC50, Ros-G2032R
T2 construct: purchased Reaction Biology Corp
Procedure: (§1) The resulting mixture was incubated at room temperature for 20 minutes, and a certain concentration of 33P-ATP was added to the reaction mixture to initiate the reaction, followed by incubation at room temperature for 120 minutes. Finally, the radioactivity of the reactants was detected by a filtration-binding method. The final kinase activity was expressed by the ratio of the remaining kinase activity in the test sample to the kinase activity of the DMSO control group. The dose-effect curve was fitted by GraphPad software and the IC50 values were calculated.

Ros1 = target: T3, Ros1 (Homo sapiens, UniProt P08922); assay: as above; type: biochemical; conditions: read-out: Half Inhibitory Concentrations of Kinases IC50, Ros1
T3 construct: purchased Reaction Biology Corp
Procedure: as §1

TrkA-G595R = target: T4, TrkA-G595R (Homo sapiens, UniProt P04629, G595R); assay: as above; type: biochemical; conditions: read-out: Half Inhibitory Concentrations of Kinases IC50, TrkA-G595R
T4 construct: purchased Reaction Biology Corp
Procedure: as §1

TrkA-G667C = target: T5, TrkA-G667C (Homo sapiens, UniProt P04629, G667C); assay: as above; type: biochemical; conditions: read-out: Half Inhibitory Concentrations of Kinases IC50, TrkA-G667C
T5 construct: purchased Reaction Biology Corp
Procedure: as §1

TrkA = target: T6, TrkA (Homo sapiens, UniProt P04629); assay: as above; type: biochemical; conditions: read-out: Half Inhibitory Concentrations of Kinases IC50, TrkA
T6 construct: purchased Reaction Biology Corp
Procedure: as §1

TrkC = target: T7, TrkC (Homo sapiens, UniProt Q16288); assay: as above; type: biochemical; conditions: read-out: Half Inhibitory Concentrations of Kinases IC50, TrkC
T7 construct: purchased Reaction Biology Corp
Procedure: as §1

[1] = test system: human colon cancer cell line KM12 cells subcutaneous xenograft tumor; assay: Efficacy test in mice, KM12 subcutaneous xenograft; type: in vivo, BALB/c mouse; conditions: PO
Procedure: The in vivo efficacy of test drugs such as the compound of Formula (I) on human colon cancer cell line KM12 cells subcutaneous xenograft tumor in a BALB/c mouse model was evaluated.
The compounds were prepared into clear solutions using 5% DMSO+10% solutol+85% water as a solvent for administration in PO (gavage) groups.
The tumor diameter was measured twice a week using a vernier caliper. The formula for calculating the tumor volume is: V=0.5×a×b^2, wherein a and b represent the long diameter and the short diameter of the tumor, respectively. The antitumor efficacy of the compounds was evaluated with TGI (%), which reflects the inhibition rate of tumor growth.
Statistical analysis was performed using SPSS software based on relative tumor volume and tumor weight at the end of the experiment. Comparisons among multiple groups were analyzed by one-way ANOVA. If the variances were homogeneous (no significant difference in F-values), the analysis was performed by the Tukey's method, and if the variances were not homogeneous (significant difference in F-values), the test was performed by the Games-Howell method. P<0.05 was considered as a significant difference.

Ba/F3 SLC34A2-ROS1-WT = assay: Cell proliferation inhibition (CellTiter-Glo, 72 h); type: cell-based; conditions: Mus musculus, BaF3, read-out: Half Inhibitory Concentrations of Cells IC50, Ba/F3 SLC34A2-ROS1-WT
Ba/F3 LMNA-NTRK1-G595R = assay: as above; type: cell-based; conditions: Mus musculus, BaF3, read-out: Half Inhibitory Concentrations of Cells IC50, Ba/F3 LMNA-NTRK1-G595R

T4 sequence (P04629 33-796 G595R): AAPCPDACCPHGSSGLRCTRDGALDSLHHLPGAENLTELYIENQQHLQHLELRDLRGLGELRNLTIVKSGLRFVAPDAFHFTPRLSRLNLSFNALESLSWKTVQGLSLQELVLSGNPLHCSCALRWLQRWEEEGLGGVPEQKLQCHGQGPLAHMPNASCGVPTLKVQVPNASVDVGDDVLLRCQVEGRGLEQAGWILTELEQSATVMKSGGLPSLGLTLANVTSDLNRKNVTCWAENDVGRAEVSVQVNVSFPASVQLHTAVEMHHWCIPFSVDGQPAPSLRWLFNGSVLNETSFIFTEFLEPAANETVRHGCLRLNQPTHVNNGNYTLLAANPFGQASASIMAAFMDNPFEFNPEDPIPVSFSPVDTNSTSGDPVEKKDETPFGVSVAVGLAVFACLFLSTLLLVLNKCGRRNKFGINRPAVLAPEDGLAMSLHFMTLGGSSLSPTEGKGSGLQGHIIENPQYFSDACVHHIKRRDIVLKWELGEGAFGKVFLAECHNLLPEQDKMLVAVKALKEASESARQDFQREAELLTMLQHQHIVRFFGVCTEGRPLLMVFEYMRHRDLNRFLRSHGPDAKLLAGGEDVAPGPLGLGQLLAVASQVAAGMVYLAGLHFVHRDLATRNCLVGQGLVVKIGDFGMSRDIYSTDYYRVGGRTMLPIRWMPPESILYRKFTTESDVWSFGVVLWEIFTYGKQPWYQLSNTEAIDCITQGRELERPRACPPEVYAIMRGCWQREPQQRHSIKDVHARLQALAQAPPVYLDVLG
T6 sequence (P04629 33-796): as the sequence (P04629 33-796 G595R) above, with R563G counted along it
T1 sequence (Q9UM73 19-1620): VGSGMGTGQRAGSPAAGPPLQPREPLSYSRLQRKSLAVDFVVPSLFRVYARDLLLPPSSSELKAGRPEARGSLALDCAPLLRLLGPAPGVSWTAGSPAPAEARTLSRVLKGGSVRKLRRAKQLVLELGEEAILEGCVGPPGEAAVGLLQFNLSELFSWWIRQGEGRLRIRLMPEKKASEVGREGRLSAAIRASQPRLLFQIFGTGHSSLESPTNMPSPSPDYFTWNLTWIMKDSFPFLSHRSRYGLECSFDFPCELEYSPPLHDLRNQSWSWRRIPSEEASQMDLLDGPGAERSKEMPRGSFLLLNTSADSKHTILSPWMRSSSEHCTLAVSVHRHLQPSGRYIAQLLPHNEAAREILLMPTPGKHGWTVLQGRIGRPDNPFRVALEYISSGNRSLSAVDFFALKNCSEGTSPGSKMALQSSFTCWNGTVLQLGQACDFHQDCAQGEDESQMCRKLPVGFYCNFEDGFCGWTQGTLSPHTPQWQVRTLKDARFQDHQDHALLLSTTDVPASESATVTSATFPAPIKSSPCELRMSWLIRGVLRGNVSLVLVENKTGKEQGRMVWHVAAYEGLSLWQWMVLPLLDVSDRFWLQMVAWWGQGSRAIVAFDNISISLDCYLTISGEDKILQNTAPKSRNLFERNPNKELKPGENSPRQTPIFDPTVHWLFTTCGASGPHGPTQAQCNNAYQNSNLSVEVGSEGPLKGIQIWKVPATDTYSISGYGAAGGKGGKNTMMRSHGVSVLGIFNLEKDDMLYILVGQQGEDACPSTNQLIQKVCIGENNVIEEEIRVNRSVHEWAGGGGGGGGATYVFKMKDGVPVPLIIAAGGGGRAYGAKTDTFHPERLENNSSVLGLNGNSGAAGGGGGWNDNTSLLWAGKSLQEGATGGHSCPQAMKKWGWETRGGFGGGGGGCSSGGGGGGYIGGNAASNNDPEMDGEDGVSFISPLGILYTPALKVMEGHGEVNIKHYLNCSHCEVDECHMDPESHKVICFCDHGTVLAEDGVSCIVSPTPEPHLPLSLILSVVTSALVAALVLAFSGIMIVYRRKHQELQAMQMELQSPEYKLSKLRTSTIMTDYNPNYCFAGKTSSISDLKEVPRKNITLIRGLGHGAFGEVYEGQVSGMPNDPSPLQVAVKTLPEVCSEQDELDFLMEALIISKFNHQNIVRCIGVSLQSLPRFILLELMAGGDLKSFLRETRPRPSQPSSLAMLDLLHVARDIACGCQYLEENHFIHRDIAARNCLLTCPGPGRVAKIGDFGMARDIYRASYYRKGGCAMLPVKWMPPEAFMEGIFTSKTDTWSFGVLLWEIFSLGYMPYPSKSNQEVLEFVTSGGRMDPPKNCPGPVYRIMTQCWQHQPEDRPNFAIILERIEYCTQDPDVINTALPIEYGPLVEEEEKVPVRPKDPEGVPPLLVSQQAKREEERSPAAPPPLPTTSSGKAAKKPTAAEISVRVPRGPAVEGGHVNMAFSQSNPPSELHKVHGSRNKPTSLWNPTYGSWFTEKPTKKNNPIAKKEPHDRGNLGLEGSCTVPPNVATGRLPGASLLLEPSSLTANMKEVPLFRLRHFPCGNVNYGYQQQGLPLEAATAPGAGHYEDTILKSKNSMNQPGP
T3 sequence (P08922 28-2347): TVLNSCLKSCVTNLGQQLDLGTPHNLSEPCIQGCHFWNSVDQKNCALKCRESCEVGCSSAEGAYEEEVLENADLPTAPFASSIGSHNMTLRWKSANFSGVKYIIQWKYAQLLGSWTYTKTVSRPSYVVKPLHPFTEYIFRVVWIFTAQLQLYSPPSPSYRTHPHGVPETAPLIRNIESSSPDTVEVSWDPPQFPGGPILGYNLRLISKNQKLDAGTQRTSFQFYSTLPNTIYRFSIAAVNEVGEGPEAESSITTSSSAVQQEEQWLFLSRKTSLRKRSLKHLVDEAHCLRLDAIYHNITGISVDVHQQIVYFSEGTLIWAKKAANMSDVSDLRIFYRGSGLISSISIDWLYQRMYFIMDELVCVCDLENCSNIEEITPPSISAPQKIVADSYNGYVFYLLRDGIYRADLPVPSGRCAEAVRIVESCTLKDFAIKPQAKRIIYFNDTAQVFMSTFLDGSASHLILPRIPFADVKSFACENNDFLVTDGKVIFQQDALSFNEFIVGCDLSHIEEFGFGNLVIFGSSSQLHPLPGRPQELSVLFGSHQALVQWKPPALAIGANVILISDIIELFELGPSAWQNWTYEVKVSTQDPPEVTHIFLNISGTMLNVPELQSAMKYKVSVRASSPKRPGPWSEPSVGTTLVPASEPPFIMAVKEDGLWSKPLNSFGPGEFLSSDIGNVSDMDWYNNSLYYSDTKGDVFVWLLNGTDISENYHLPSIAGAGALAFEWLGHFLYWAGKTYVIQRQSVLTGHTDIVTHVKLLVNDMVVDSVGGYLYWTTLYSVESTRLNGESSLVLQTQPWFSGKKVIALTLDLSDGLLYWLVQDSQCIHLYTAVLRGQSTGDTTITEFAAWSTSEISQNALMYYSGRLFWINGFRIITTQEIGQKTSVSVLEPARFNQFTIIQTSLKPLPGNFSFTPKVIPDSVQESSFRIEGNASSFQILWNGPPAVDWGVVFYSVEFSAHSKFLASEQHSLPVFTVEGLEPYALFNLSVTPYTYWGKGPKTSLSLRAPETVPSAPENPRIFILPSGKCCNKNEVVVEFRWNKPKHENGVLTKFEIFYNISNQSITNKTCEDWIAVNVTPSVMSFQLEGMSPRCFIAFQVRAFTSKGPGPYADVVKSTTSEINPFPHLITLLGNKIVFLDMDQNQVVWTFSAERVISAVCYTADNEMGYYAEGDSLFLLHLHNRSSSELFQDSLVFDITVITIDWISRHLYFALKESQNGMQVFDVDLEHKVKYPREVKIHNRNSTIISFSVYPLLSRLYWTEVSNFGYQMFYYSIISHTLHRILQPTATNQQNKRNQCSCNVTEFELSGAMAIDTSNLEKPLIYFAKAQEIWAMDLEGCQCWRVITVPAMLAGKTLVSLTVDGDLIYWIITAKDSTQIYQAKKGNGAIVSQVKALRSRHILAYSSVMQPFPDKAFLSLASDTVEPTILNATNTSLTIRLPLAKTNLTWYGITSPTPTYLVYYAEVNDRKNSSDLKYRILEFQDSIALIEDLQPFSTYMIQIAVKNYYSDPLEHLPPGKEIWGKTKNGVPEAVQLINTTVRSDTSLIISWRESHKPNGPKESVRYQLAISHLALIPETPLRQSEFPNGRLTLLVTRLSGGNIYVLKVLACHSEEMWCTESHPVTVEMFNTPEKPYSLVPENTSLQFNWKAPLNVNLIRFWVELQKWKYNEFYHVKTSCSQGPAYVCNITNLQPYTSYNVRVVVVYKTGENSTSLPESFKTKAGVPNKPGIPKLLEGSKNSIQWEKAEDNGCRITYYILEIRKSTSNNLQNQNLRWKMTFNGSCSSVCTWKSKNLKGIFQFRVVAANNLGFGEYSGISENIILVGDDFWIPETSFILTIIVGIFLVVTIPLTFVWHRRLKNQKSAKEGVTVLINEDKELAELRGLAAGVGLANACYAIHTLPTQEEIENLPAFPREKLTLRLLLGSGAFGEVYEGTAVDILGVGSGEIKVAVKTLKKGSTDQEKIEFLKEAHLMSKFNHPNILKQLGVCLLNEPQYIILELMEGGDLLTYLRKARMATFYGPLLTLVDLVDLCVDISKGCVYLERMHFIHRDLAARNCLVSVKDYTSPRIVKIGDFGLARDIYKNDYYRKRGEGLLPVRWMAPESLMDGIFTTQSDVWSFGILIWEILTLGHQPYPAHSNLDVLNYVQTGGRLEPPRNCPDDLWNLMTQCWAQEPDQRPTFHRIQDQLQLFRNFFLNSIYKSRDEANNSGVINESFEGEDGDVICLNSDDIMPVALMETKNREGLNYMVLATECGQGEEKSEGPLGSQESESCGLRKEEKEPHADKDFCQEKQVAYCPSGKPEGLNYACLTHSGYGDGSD
T2 sequence (P08922 28-2347 G2032R): as the sequence (P08922 28-2347) above, with G2005R counted along it
T5 sequence (P04629 33-796 G667C): as the sequence (P04629 33-796 G595R) above, with R563G, G635C counted along it

O=C1NC2(CC2)COc2ncc(F)cc2[C@H]2CCON2c2ccn3ncc1c3n2 [Compound of Formula (I)]
IC50 (ALK): 13 nM | IC50 (Ros-G2032R): 0.4 nM | IC50 (Ros1): 0.14 nM | IC50 (TrkA-G595R): 3.6 nM | IC50 (TrkA-G667C): 7 nM | IC50 (TrkA): 2.07 nM | IC50 (TrkC): 0.14 nM | T/C ([1]; 3 mg/kg): 33.18% | TGI ([1]; 3 mg/kg): 71.23% | T/C ([1]; 15 mg/kg): 15.63% | TGI ([1]; 15 mg/kg): 88.61% | IC50 (Ba/F3 SLC34A2-ROS1-WT): 2.53 nM | IC50 (Ba/F3 LMNA-NTRK1-G595R): 6.2 nM
